Assay results published in patent publication US7329680B2, “Heterocycle substituted carboxylic acids” (The Institute for Pharmaceutical Discovery, LLC, priority 2003, dated 2008).

melting point | SMILES
148 °C (dec.) | O=C(O)[C@@H]1CSC(c2ccc(-c3ccc(-c4c(Cc5ccccc5)oc5ccccc45)cc3)cc2)N1 (mixture of isomers) [Example 38, (2RS,4R)-2-[4′-(2-Benzylbenzofuran-3-yl)biphen-4-yl]thiazolidine-4-carboxylic acid]
135 to 137 °C (dec.) | O=C(O)[C@@H]1CSC(c2ccc(-c3ccc(-n4ccc5ccccc54)cc3)cc2)N1 (stereo in doubt) [Example 27, 2-(4′-Indol-1-yl-biphen-4-yl)thiazolidine-4-carboxylic acid]
220 to 223 °C | O=C(O)C(=O)Nc1cc(-c2ccc(-c3cccc4c3oc3ccccc34)cc2)cn(Cc2ccccc2)c1=O [Example 4, N-[1-Benzyl-5-(4-dibenzofuran-4-yl-phenyl)-2-oxo-1,2-dihydro-pyridin-3-yl]-oxalamic acid]
289 to 292 °C | CCc1ccc(-c2sc(NC(=O)c3ccc(S(=O)(=O)N4CCCC4C(=O)O)cc3)nc2-c2ccc(Cl)cc2)cc1 (stereo not drawn) [Example 5, 1-{4-[4-(4-Chloro-phenyl)-5-(4-ethyl-phenyl)-thiazol-2-ylcarbamoyl]-benzenesulfonyl}-pyrrolidine-2-carboxylic acid]
205 °C (dec.) | O=C(O)CCNc1cc(-c2ccc(-c3cccc4c3oc3ccccc34)cc2)nc(Cc2ccccc2)n1 [Example 45, 3-[2-Benzyl-6-(4-dibenzofuran-4-yl-phenyl)-pyrimidin-4-ylamino]-propionic acid]
210 °C (dec.) | O=C(O)CCNc1cc(-c2ccc(-c3cccc4c3oc3ccccc34)cc2)nc(-c2ccccc2)n1 [Example 46, 3-[2-phenyl-6-(4-dibenzofuran-4-yl-phenyl)-pyrimidin-4-ylamino]-propionic acid]
